What all share (format): functional
The test system of assay [1] is Oculimacula yallundae. Description: Fungicidal activity against Oculimacula yallundae inoculated in 24 hr compound-treated plant foliage assessed as disease control at 200 ppm measured after 7 days.
Assay [2] has as its system Parastagonospora nodorum. Description: Fungicidal activity against Phaeosphaeria nodorum inoculated in 24 hr compound-treated plant foliage assessed as disease control at 200 ppm measured after 7 days.
In assay [3] the test system is Oculimacula yallundae. Put plainly: Fungicidal activity against Oculimacula yallundae inoculated in 24 hr compound-treated plant foliage assessed as disease control at 40 ppm measured after 7 days.
Assay [4] deals with Parastagonospora nodorum. Put plainly: Fungicidal activity against Phaeosphaeria nodorum inoculated in 24 hr compound-treated plant foliage assessed as disease control at 40 ppm measured after 7 days.
Assay [5] deals with Parastagonospora nodorum. Put plainly: Fungicidal activity against Phaeosphaeria nodorum inoculated in 24 hr compound-treated plant foliage assessed as disease control at 20 ppm measured after 7 days.
The subject of assay [6] is Oculimacula yallundae. Put plainly: Fungicidal activity against Oculimacula yallundae inoculated in 24 hr compound-treated plant foliage assessed as disease control at 20 ppm measured after 7 days.

Turning to `Cc1nc2n(c1C(=O)N1CCCCC1)CCS2(=O)=O`, the Activity was 0% with Oculimacula yallundae [1] and 23% in the assay on Parastagonospora nodorum [2].
As for `O=C(Nc1c(Cl)cccc1Cl)c1c(Cl)nc2n1CCS2(=O)=O`, the Activity in the assay with Oculimacula yallundae [3] amounted to 39%; in the assay with Parastagonospora nodorum [4], 0%.
Regarding `Cc1nc2n(c1C(=O)Nc1ccccc1)CCS2(=O)=O`, the figures for the Activity with Oculimacula yallundae [1] and in the assay on Parastagonospora nodorum [2] were 54% and 23%, respectively.
For the molecule `CCNC(=O)c1c(Cl)nc2n1CCS2(=O)=O`, the Activity came to 39% in the assay on Oculimacula yallundae [3] and 23% with Parastagonospora nodorum [4].
`C[Si](Cn1cncn1)(c1ccc(F)cc1)c1ccc(F)cc1` [FLUSILAZOLE]: the values for the Activity in the assay with Parastagonospora nodorum [5] and with Oculimacula yallundae [6] were 99% and 98%, respectively.
Consider `Cc1nc2n(c1C(=O)Nc1ccccn1)CCS2(=O)=O`, for which the Activity is 100% in the assay with Oculimacula yallundae [1] and 0% in the assay with Parastagonospora nodorum [2].
As to `Cc1nc2n(c1C(=O)Nc1c(Cl)cccc1Cl)CCS2(=O)=O`, the Activity in the assay on Oculimacula yallundae [3] is 0%; with Parastagonospora nodorum [4], 23%.
Take `O=C(Nc1ccccn1)c1c(Cl)nc2n1CCS2(=O)=O`: the Activity in the assay on Oculimacula yallundae [1] was found to be 100%; in the assay on Parastagonospora nodorum [2], 0%.
Take `O=C(c1c(Cl)nc2n1CCS2(=O)=O)N1CCOCC1`: the values for the Activity with Oculimacula yallundae [3] and in the assay with Parastagonospora nodorum [4] were 0% and 23%, respectively.
`O=C(c1c(Cl)nc2n1CCS2(=O)=O)N1CCCCC1`: the Activity in the assay with Oculimacula yallundae [1] is 0%; in the assay with Parastagonospora nodorum [2], 23%.
The corresponding values for `CN(C(=O)c1c(Cl)nc2n1CCS2(=O)=O)c1ccccc1` are 39% and 0%.
For the molecule `O=C(Nc1c(Cl)cccc1Cl)c1c(-c2ccccc2)nc2n1CCS2(=O)=O`, the Activity came to 9% with Oculimacula yallundae [3] and 23% with Parastagonospora nodorum [4].

The values above are taken from ChEMBL document CHEMBL3046152, “Synthesis and fungicide activity of 2,3-dihydroimidazo [2,1-b]thiazole-5-carboxamides” (1995).
